The target of the experiment is T1, purified HBS (Homo sapiens, UniProt P68871+P69905, E7V).
T1 construct: HbS is purified by the CRO VIRUSYS, from blood obtained from homozygous sickle cell patients; tissue VIRUSYS (CRO that did the purification); host or cells: blood of homozygous sickle cell patients
Description: HbS polymerization assay (delay time). It is filed as biochemical. Conditions: 50 μM purified HBS, 1.8 M potassium phosphate pH 7.4. How it is done:
Polymerization assays are carried out in vitro using purified HBS exchanged into 1.8 M potassium phosphate buffer at pH 7.4. Using a slightly modified protocol (Antonini and Brunori, 1971), HbS is purified by the CRO VIRUSYS, from blood obtained from homozygous sickle cell patients through the Hemoglobinopathy Center at Children's Hospital Oakland Research Institute (CHORI) with Institutional Review Board approval. Compounds are prepared in 100% DMSO and a desired amount is added to 50 μM of purified HBS at a final DMSO concentration of 0.3%. Final potassium phosphate concentration is adjusted to 1.8 M using a combination of 2.5 M potassium phosphate stock solution and water at pH 7.4. The reaction mixture is incubated for an hour at 37° C. and then transferred into a 24-well plate for deoxygenation in a glove box containing 99.5% nitrogen and 0.5% oxygen. The 24-well plate is not covered and incubated at 4° C. on a plate cooler inside the glove box for one and a half hours. Fifty μL of the reaction mixture is transferred into a 96-well plate and the absorbance at 700 nm is measured every minute for one hour at 37° C. in a plate reader located inside the glove box. A plot of the absorbance against time is fitted using a Boltzman sigmoidal fit and the delay time (from zero to time at half Vmax) is measured. To compare and rank compounds, delay times are expressed as percent delay (% DT), which is defined as the difference in delay times for HBS/compound and HBS alone multiplied by 100 and divided by the delay time for HBS alone.
Compounds listed below have been tested in the polymerization assay. Activity ranges are defined by the number of dagger (†) symbols indicated. † denotes activity ≤40% but ≤80%; †† denotes activity >80% but ≤120%; ††† denotes activity >120% but ≤140%; †††† denotes activity >160%.

In the case of `CC(C)n1nccc1-c1ncccc1COc1cccc(O)c1C=O` [Compound 43, 2-hydroxy-6-((2-(1-isopropyl-1H-pyrazol-5-yl)pyridin-3-yl)methoxy)benzaldehyde], the “% delta Delay” value was “†† (†† denotes activity >80% but ≤120%)”.

The record behind these values is US10034879B2, “Substituted benzaldehyde compounds and methods for their use in increasing tissue oxygenation” (Global Blood Therapeutics, Inc., priority 2011, dated 2018).
